Where a name gives a salt, the structure may show the parent alone.
Legend:
[1] = test system: A549 cells; assay: Cell-based assay, anti-proliferative activity (Cell Counting Kit-8, 72 hours); design: species or system human; conditions: Homo sapiens, A549, 72 h, read-out: IC50 (μM) (A549)
Method in brief: (§1)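 Cells seeded at 2,000–3,000 cells/well and exposed to candidate MELK inhibitors for 72 hours; growth measured with Cell Counting Kit-8. IC50 values calculated from the growth read-out.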

[2] = test system: T47D cells; assay: as above; design: species or system human; conditions: Homo sapiens, T47D, 72 h, read-out: IC50 (μM) (T47D)
Method in brief: as §1

[3] = test system: 22Rv1 cells; assay: as above; design: species or system human; conditions: Homo sapiens, 22Rv1, 72 h, read-out: IC50 (μM) (22Rvl)
Method in brief: as §1

[4] = test system: DU4475 cells; assay: as above; design: species or system human; conditions: Homo sapiens, DU-4475, 72 h, read-out: IC50 (μM) (DU4475)
Method in brief: as §1

[5] = test system: HT1197 cells; assay: Cell-based assay, anti-proliferative activity, MELK-negative control (Cell Counting Kit-8, 72 hours); design: species or system human; conditions: Homo sapiens, HT1197, 72 h, read-out: IC50 (μM) (HTll97)
Method: 100 micro-L of cell suspension was seeded onto 96-well microtiter plate (ViewPlate-96FTC, PerkinElmer). The initial cell concentration of 22Rv1, T47D, A549, DU4475, and HT1197 were 3,000 cells/well, 2,000 cells/well and 2,500 cells/well, respectively. Cellular growth was determined using Cell Counting Kit-8 (DOJINDO) at 72 hours after the exposure of the candidate inhibitors. […] Accurate IC50 values were calculated as described previously.

[6] = target: MELK (Homo sapiens, UniProt Q14680); assay: Kinase assay (IMAP fluorescence polarization, FITC-labeled histone H3 peptide); assay type: biochemical; conditions: 50 micro-M ATP
Method in brief: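 Kinase (0.8 ng/μL) reacted with 100 nM FITC-histone H3 peptide and 50 μM ATP in 20 mM HEPES, 0.3 mM MgCl2, 2 mM DTT, 0.01% Tween-20, pH 7.4, for 1 hour at room temperature. Phosphorylation read by IMAP fluorescence polarization after adding binding solution; IC50 from four-parameter fit.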

Chain of MELK (Q14680 whole entry, looked up): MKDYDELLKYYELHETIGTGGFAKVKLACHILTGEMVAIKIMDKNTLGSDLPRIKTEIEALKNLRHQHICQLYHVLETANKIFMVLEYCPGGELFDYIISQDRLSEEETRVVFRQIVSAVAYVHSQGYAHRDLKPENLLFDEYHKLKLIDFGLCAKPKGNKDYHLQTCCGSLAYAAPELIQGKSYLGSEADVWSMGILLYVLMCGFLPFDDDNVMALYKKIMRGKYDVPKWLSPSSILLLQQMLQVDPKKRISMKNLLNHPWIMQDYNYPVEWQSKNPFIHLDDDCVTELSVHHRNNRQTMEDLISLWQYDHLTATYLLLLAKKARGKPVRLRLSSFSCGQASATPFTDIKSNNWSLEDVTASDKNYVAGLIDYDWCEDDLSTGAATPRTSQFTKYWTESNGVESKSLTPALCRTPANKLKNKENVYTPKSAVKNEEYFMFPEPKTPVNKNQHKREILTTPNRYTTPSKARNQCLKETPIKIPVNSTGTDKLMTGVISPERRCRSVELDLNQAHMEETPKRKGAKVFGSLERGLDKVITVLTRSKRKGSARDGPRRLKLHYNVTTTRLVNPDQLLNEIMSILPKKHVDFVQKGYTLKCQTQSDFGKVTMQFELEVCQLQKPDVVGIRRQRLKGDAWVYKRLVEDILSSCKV

Row | SMILES | IC50 [1] | IC50 [2] | IC50 [3] | IC50 [4] | IC50 [5] | IC50 [6]
1 | CC(=O)c1cnc2ccc(-c3cc(Cl)c(O)c(Cl)c3)nc2c1N[C@H]1CC[C@H](CN2CCN(C)CC2)CC1 [Example 63, 1-(6-(3,5-Dichloro-4-hydroxyphenyl)-4-{trans-4-[(4-methylpiperazin-1-yl)methyl]cyclohexyl-amino}-1,5-naphthyridin-3-yl)ethanone trihydrochloride] | 0.02 µM | 0.016 µM | 0.025 µM | 0.0092 µM | 0.13 µM | 0.0008 µM
2 | COc1c(Cl)cc(-c2ccc3ncc(C(C)=O)c(N[C@H]4CC[C@H](CN(C)C)CC4)c3n2)cc1Cl [Example 85, 1-[6-(3,5-Dichloro-4-methoxyphenyl)-4-{trans-4-[(dimethylamino)methyl]-cyclohexylamino}-1,5-naphthyridin-3-yl]ethanone dihydrochloride] | 2.3 µM | 0.43 µM | 0.77 µM | 2.3 µM | 6.5 µM | 0.12 µM
3 | CC(=O)c1cnc2ccc(-c3cc(F)c(O)c(F)c3)nc2c1N[C@H]1CC[C@H](CN(C)C)CC1 [Example 50, 1-[6-(3,5-Difluoro-4-hydroxyphenyl)-4-{trans-4-[(dimethylamino)methyl]cyclohexylamino}-1,5-naphthyridin-3-yl]ethanone dihydrochloride] | 0.015 µM | 0.0061 µM | 0.017 µM | 0.0053 µM | 0.08 µM | 0.0019 µM
4 | CC(=O)c1cnc2ccc(N3CCCC3)nc2c1N[C@H]1CC[C@H](CN2CCCC2)CC1 [Example 78, 1-{6-(Pyrrolidin-1-yl)-4-[trans-4-(pyrrolidin-1-ylmethyl)cyclohexylamino]-1,5-naphthyridin-3-yl}ethanone] | 6.8 µM | 5.4 µM | 5.6 µM | 7.7 µM | 9.8 µM | 2 µM
5 | CC(=O)c1cnc2ccc(-c3cc(Cl)c(O)c(Cl)c3)nc2c1N[C@H]1CC[C@H](CCN(C)C)CC1 [Example 9, 1-[6-(3,5-Dichloro-4-hydroxyphenyl)-4-({trans-4-[2-(dimethylamino)ethyl]cyclohexyl}amino)-1,5-naphthyridin-3-yl]ethanone dihydrochloride] | 0.013 µM | 0.0066 µM | 0.011 µM | 0.0055 µM | 0.27 µM | 0.0007 µM
6 | CC(=O)c1cnc2ccc(-c3cc(F)c(O)c(Cl)c3)nc2c1Nc1ccc(NCCN(C)C)nc1 [Example 39, 1-[6-(3-Chloro-5-fluoro-4-hydroxyphenyl)-4-{6-[2-(dimethylamino)ethylamino]pyridin-3-ylamino}-1,5-naphthyridin-3-yl]ethanone trihydrochloride] | 0.44 µM | 0.12 µM | 0.38 µM | 0.19 µM | 10 µM | 0.03 µM
7 | CN(C)C[C@H]1CC[C@H](Nc2c(S(C)(=O)=O)cnc3ccc(-c4cc(F)c(O)c(Cl)c4)nc23)CC1 [Example 13, 6-(3-Chloro-5-fluoro-4-hydroxyphenyl)-4-({trans-4-[(dimethylamino)methyl]cyclohexyl}-amino)-3-methylsulfonyl-1,5-naphthyridine dihydrochloride] | 0.073 µM | 0.013 µM | 0.019 µM | 0.0068 µM | 0.32 µM | 0.0014 µM
8 | CN(C)C[C@H]1CC[C@H](Nc2c(C(=O)C3CCC3)cnc3ccc(-c4cc(Cl)c(O)c(Cl)c4)nc23)CC1 [Example 211, (6-(3,5-dichloro-4-hydroxyphenyl)-4-((4-[(dimethylamino)methyl{cyclohexyl)amino)-1,5-naphthyridin-3-yl) (cyclobutyl)methanone dihydrochloride] | 0.0076 µM | 0.0034 µM | 0.0072 µM | 0.003 µM | 0.0077 µM | 0.0027 µM
